Data taken from ChEMBL document CHEMBL1134351, “Synthesis of new cyclitol compounds that influence the activity of phosphatidylinositol 4-kinase isoform, PI4K230” (J Med Chem, 2001).

molecular target: Phosphatidylinositol 4-kinase alpha (Bos taurus) (UniProt O02811); test: Inactivation of the enzyme PI4K230 from bovine brain membranes; set-up: concentration or dose not given beside the values
Sequence (O02811 whole entry): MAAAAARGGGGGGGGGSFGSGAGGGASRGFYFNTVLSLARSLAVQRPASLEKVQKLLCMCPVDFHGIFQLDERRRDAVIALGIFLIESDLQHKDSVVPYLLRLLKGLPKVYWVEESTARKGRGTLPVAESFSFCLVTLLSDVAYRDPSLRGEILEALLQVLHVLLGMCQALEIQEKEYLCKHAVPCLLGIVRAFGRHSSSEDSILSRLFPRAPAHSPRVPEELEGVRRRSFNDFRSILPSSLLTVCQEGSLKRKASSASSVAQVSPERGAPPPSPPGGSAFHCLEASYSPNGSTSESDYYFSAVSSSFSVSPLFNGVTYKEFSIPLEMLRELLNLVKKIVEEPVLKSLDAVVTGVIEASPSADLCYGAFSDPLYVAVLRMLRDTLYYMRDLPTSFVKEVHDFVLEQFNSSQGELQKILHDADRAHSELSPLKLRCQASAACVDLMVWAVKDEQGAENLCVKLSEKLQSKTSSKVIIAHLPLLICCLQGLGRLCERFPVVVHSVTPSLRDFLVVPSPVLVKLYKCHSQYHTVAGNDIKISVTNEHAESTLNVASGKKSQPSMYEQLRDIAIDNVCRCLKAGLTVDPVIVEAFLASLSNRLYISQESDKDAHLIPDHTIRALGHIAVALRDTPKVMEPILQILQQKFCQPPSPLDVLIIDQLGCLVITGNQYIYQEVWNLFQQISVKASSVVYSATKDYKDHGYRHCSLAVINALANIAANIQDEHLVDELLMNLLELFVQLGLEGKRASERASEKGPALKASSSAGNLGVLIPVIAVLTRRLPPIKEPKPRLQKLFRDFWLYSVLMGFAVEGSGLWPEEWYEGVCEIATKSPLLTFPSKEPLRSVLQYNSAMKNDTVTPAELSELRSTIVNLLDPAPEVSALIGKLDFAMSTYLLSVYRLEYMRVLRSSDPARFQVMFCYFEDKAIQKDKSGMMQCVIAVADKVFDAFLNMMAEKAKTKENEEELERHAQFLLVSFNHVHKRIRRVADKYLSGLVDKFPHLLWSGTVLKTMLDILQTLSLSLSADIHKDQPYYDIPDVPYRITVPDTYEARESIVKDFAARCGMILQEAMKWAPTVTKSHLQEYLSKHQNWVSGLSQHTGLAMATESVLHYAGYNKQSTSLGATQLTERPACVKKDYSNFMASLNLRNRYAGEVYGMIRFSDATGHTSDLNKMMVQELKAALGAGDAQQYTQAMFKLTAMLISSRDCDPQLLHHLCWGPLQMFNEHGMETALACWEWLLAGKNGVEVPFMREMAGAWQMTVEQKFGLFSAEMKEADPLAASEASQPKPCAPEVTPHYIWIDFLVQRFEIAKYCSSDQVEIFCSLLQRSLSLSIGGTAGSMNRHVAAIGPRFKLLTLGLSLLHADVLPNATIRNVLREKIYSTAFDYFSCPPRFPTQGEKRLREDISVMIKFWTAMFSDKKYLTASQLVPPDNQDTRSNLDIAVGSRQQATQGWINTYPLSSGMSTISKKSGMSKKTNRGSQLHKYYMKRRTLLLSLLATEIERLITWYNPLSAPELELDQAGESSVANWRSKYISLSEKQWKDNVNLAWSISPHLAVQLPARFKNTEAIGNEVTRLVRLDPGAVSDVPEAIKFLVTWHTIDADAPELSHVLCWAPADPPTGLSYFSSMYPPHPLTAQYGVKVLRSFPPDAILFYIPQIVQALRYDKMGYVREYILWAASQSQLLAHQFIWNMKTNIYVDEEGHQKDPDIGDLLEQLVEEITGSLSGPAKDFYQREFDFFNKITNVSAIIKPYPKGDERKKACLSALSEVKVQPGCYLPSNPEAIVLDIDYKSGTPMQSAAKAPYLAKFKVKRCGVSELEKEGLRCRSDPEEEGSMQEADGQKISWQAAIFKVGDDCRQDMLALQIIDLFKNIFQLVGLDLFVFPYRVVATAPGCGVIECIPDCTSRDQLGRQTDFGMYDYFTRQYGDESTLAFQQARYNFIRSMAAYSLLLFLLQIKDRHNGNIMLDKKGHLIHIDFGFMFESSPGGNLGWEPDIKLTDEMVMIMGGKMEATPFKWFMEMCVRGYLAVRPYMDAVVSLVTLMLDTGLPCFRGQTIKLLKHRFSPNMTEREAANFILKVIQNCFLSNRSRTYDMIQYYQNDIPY

Remaining activity [%] | Structure (SMILES)
51 | O=C1C[C@H](O)CC=C1OC(=O)c1ccccc1
57 | CC1(C)OC2C=CC(=O)CC2O1 (centres undefined)
85 | [N-]=[N+]=N[C@@H]1CC=CC(=O)[C@H]1OCc1ccccc1
80 | [N-]=[N+]=N[C@@H]1C[C@@H](O)CC(=O)[C@H]1OC(=O)c1ccccc1
63 | COC(=O)/C=C1\C[C@H](O)C[C@@H](N=[N+]=[N-])[C@@H]1OC(=O)c1ccccc1
85 | [N-]=[N+]=N[C@@H]1C[C@@H](O)CC(=O)[C@H]1OCc1ccccc1
96 | [N-]=[N+]=N[C@@H]1C[C@@H](O)CC2(SCCS2)[C@H]1OC(=O)c1ccccc1
70 | COC(=O)/C=C1\C[C@H](O)C[C@@H](N=[N+]=[N-])[C@@H]1OCc1ccccc1
56 | CC(=O)O[C@@H]1[C@@H](NC(=O)c2ccccc2)[C@@H](O)CC(=O)[C@H]1OC(C)=O
64 | COC(=O)/C=C1\C[C@H](O)C[C@@H](OC(=O)c2ccccc2)[C@@H]1OC(=O)c1ccccc1
80 | CC1(C)OC2CC(=O)C[C@@H](O)C2O1 (some centres undefined)
10 | CC(=O)O[C@H]1CC(=O)[C@@H](OC(=O)c2ccccc2)[C@H](N=[N+]=[N-])C1
82 | CC(=O)O[C@@H]1CC(=O)[C@@H](OCc2ccccc2)[C@H](N=[N+]=[N-])C1
8 | O=C(O[C@@H]1C(=O)C=CC[C@H]1OC(=O)c1ccccc1)c1ccccc1
66 | [N-]=[N+]=N[C@@H]1C[C@@H](O)C/C(=N\O)[C@H]1OC(=O)c1ccccc1
20 | CC(=O)O[C@@H]1CC(=O)[C@@H](OC(=O)c2ccccc2)[C@H](OC(=O)c2ccccc2)C1
96 | CC(=O)O[C@@H]1C[C@@H](N=[N+]=[N-])[C@H](OC(=O)c2ccccc2)C2(C1)SCCS2
5 | [N-]=[N+]=N[C@@H]1CC=CC(=O)[C@H]1OC(=O)c1ccccc1
84 | O=C(O[C@@H]1C(=O)C[C@H](O)C[C@H]1OC(=O)c1ccccc1)c1ccccc1
